Where two headings read alike, the source gives them in different places.
Tests used:
Assay type in all cases: cell-based
[1] = biological target: T1, GLP-1R (Homo sapiens, UniProt P43220); test: HitHunter cAMP assay (GLP-1R); conditions: cAMP; for Emax: read-out: (Emax) GLP-1R
Outline: (§1)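 Suspension cells (10,000/well) in HBSS with 10 mM HEPES, 625 μM IBMX, 0.2% BSA exposed to 22-point 2-fold agonist series in duplicate for 30 min at room temperature. cAMP measured by antibody immunocompetition with overnight development, luminescence read-out.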

[2] = biological target: T2, GIP-R (Homo sapiens, UniProt P48546); test: HitHunter cAMP assay (GIP-R); conditions: cAMP; for Emax: read-out: (Emax) GIP-R
T2 sequence (P48546 22-466): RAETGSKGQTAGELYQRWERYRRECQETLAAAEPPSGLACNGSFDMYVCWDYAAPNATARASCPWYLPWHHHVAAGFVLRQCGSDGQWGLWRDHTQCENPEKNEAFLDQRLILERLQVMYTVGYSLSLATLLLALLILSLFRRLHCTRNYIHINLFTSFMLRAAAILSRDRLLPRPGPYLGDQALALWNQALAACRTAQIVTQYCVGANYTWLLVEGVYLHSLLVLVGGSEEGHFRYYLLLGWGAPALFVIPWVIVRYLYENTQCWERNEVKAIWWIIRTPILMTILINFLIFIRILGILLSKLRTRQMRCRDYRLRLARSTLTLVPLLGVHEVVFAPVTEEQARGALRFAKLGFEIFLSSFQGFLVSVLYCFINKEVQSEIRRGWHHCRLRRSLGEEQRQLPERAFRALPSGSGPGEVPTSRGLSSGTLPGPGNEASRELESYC
Outline: as §1

[3] = biological target: T1, GLP-1R; test: PathHunter β-arrestin assay
Outline: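 Cells (5,000/well) plated overnight, then exposed to a 22-point 2-fold agonist dilution series in medium with 0.2% BSA for 90 min at 37 °C, 5% CO2. PathHunter detection reagent added; after 3 h at room temperature in the dark, luminescence read.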

[4] = Table 3, read-out: EC50 GLP-1R/nM
[5] = Table 3A, read-out: EC50 GLP-1R/nM
[6] = Table 3, read-out: EC50 GIP-R/nM
[7] = Table 3A, read-out: EC50 GIP-R/nM
[8] = PathHunter β-arrestin assay, read-out: β-arrestin activity EC50

T1 sequence (P43220 24-463): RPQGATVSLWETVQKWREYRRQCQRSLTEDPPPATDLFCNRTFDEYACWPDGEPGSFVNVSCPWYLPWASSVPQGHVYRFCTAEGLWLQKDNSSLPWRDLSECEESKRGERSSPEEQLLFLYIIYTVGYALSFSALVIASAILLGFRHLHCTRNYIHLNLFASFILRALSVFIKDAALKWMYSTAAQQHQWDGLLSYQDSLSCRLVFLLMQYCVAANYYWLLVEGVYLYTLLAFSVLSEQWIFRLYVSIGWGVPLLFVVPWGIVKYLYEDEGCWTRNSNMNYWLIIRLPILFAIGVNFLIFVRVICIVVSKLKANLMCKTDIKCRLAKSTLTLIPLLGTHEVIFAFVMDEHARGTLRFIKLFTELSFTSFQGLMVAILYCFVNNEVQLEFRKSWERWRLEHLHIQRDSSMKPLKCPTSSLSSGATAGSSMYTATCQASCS

SMILES	Emax ([1]; Table 3) [%]	EC50 [1, 4] [nM]	Emax ([1]; Table 3A) [%]	EC50 [1, 5] [nM]	Emax ([2]; Table 3) [%]	EC50 [2, 6] [nM]	Emax ([2]; Table 3A) [%]	EC50 [2, 7] [nM]	EC50 [3, 8] [nM]	EC50 ([1]; EC50 GLP-1R/nM, Table 3) [nM]	EC50 ([1]; EC50 GLP-1R/nM, Table 3A) [nM]	EC50 ([2]; EC50 GIP-R/nM, Table 3) [nM]	EC50 ([2]; read-out: EC50 GIP-R/nM, Table 3A) [nM]	EC50 [3] [nM]
CCCCCCCCCCCCCCCC(=O)N[C@@H](CCC(=O)NCCCC[C@H](NC(=O)[C@H](CO)NC(=O)[C@@H]1CCCN1C(=O)[C@@H]1CCCN1C(=O)[C@@H]1CCCN1C(=O)[C@H](C)NC(=O)CNC(=O)[C@H](CO)NC(=O)[C@H](CO)NC(=O)[C@@H]1CCCN1C(=O)CNC(=O)CNC(=O)[C@H](C)NC(=O)[C@H](CC(C)C)NC(=O)[C@H](CC(C)C)NC(=O)[C@H](Cc1c[nH]c2ccccc12)NC(=O)[C@H](CC(N)=O)NC(=O)[C@@H](NC(=O)[C@H](Cc1ccccc1)NC(=O)[C@H](CCC(=O)O)NC(=O)C(C)(C)NC(=O)[C@H](C)NC(=O)[C@H](C)NC(=O)[C@H](CCC(N)=O)NC(=O)[C@H](CCCCN)NC(=O)[C@H](CC(=O)O)NC(=O)[C@H](CC(C)C)NC(=O)[C@H](Cc1ccc(O)cc1)NC(=O)[C@@H](NC(=O)[C@H](CO)NC(=O)[C@H](Cc1ccc(O)cc1)NC(=O)[C@H](CC(=O)O)NC(=O)[C@H](CO)NC(=O)[C@@H](NC(=O)[C@H](Cc1ccccc1)NC(=O)[C@@H](NC(=O)CNC(=O)[C@H](CCC(=O)O)NC(=O)CSCC(=O)NCCN1CCSCC1=O)[C@@H](C)O)[C@@H](C)O)[C@@H](C)CC)C(C)C)C(N)=O)C(=O)O [Compound 36]	108	< 1	108	< 1	51 to 75	0.1 to 10	51 to 75	0.1 to 10	> 1000					
CCCCCCCCCCCCCCCC(=O)N[C@@H](CCC(=O)NCCCC[C@H](NC(=O)[C@H](CO)NC(=O)[C@@H]1CCCN1C(=O)[C@@H]1CCCN1C(=O)[C@@H]1CCCN1C(=O)[C@H](C)NC(=O)CNC(=O)[C@H](CO)NC(=O)[C@H](CO)NC(=O)[C@@H]1CCCN1C(=O)CNC(=O)CNC(=O)[C@H](C)NC(=O)[C@H](CC(C)C)NC(=O)[C@H](CC(C)C)NC(=O)[C@H](Cc1c[nH]c2ccccc12)NC(=O)[C@H](CC(N)=O)NC(=O)[C@@H](NC(=O)[C@H](Cc1ccccc1)NC(=O)[C@H](CCC(=O)O)NC(=O)C(C)(C)NC(=O)[C@H](C)NC(=O)[C@H](C)NC(=O)[C@H](CCC(N)=O)NC(=O)[C@H](CCCCN)NC(=O)[C@H](CC(=O)O)NC(=O)[C@H](CC(C)C)NC(=O)[C@H](Cc1ccc(O)cc1)NC(=O)[C@@H](NC(=O)[C@H](CO)NC(=O)[C@H](Cc1ccc(O)cc1)NC(=O)[C@H](CC(=O)O)NC(=O)[C@H](CO)NC(=O)[C@@H](NC(=O)[C@H](Cc1ccccc1)NC(=O)[C@@H](NC(=O)CNC(=O)[C@H](CCC(=O)O)NC(=O)CSCC(=O)NCCN1CCNC(=O)C1)[C@@H](C)O)[C@@H](C)O)[C@@H](C)CC)C(C)C)C(N)=O)C(=O)O [Compound 37]	110	< 1	110	< 1	10 to 21	1 to 10	10 to 21		> 1000					
CCCCCCCCCCCCCCCC(=O)N[C@@H](CCC(=O)NCCCC[C@H](NC(=O)[C@H](CO)NC(=O)[C@@H]1CCCN1C(=O)[C@@H]1CCCN1C(=O)[C@@H]1CCCN1C(=O)[C@H](C)NC(=O)CNC(=O)[C@H](CO)NC(=O)[C@H](CO)NC(=O)[C@@H]1CCCN1C(=O)CNC(=O)CNC(=O)[C@H](C)NC(=O)[C@H](CC(C)C)NC(=O)[C@H](CC(C)C)NC(=O)[C@H](Cc1c[nH]c2ccccc12)NC(=O)[C@H](CC(N)=O)NC(=O)[C@@H](NC(=O)[C@H](Cc1ccccc1)NC(=O)[C@H](CCC(=O)O)NC(=O)C(C)(C)NC(=O)[C@H](C)NC(=O)[C@H](C)NC(=O)[C@H](CCC(N)=O)NC(=O)[C@H](CCCCN)NC(=O)[C@H](CC(=O)O)NC(=O)[C@H](CC(C)C)NC(=O)[C@H](Cc1ccc(O)cc1)NC(=O)[C@@H](NC(=O)[C@H](CO)NC(=O)[C@H](Cc1ccc(O)cc1)NC(=O)[C@H](CC(=O)O)NC(=O)[C@H](CO)NC(=O)[C@@H](NC(=O)[C@H](Cc1ccccc1)NC(=O)[C@@H](NC(=O)CNC(=O)[C@H](CCC(=O)O)NC(=O)CSCC(=O)NCCN1CCN(C)C(=O)C1)[C@@H](C)O)[C@@H](C)O)[C@@H](C)CC)C(C)C)C(N)=O)C(=O)O [Compound 38]	97 to 104	0.1 to 1	97 to 104	0.1 to 1	18 to 43	1 to 10	18 to 43	1 to 1000	> 1000					
CCCCCCCCCCCCCCCC(=O)N[C@@H](CCC(=O)NCCCC[C@H](NC(=O)[C@H](CO)NC(=O)[C@@H]1CCCN1C(=O)[C@@H]1CCCN1C(=O)[C@@H]1CCCN1C(=O)[C@H](C)NC(=O)CNC(=O)[C@H](CO)NC(=O)[C@H](CO)NC(=O)[C@@H]1CCCN1C(=O)CNC(=O)CNC(=O)[C@H](C)NC(=O)[C@H](CC(C)C)NC(=O)[C@H](CC(C)C)NC(=O)[C@H](Cc1c[nH]c2ccccc12)NC(=O)[C@H](CC(N)=O)NC(=O)[C@@H](NC(=O)[C@H](Cc1ccccc1)NC(=O)[C@H](CCC(=O)O)NC(=O)C(C)(C)NC(=O)[C@H](C)NC(=O)[C@H](C)NC(=O)[C@H](CCC(N)=O)NC(=O)[C@H](CCCCN)NC(=O)[C@H](CC(=O)O)NC(=O)[C@H](CC(C)C)NC(=O)[C@H](Cc1ccc(O)cc1)NC(=O)[C@@H](NC(=O)[C@H](CO)NC(=O)[C@H](Cc1ccc(O)cc1)NC(=O)[C@H](CC(=O)O)NC(=O)[C@H](CO)NC(=O)[C@@H](NC(=O)[C@H](Cc1ccccc1)NC(=O)[C@@H](NC(=O)CNC(=O)[C@H](CCC(=O)O)NC(=O)CSCC(=O)NCCN1CCOC1=O)[C@@H](C)O)[C@@H](C)O)[C@@H](C)CC)C(C)C)C(N)=O)C(=O)O [Compound 39]	102 to 104	< 1	102 to 104	< 1	40 to 60	0.1 to 10	40 to 60	0.1 to 10	> 1000					
CCCCCCCCCCCCCCCC(=O)N[C@@H](CCC(=O)NCCCC[C@H](NC(=O)[C@H](CO)NC(=O)[C@@H]1CCCN1C(=O)[C@@H]1CCCN1C(=O)[C@@H]1CCCN1C(=O)[C@H](C)NC(=O)CNC(=O)[C@H](CO)NC(=O)[C@H](CO)NC(=O)[C@@H]1CCCN1C(=O)CNC(=O)CNC(=O)[C@H](C)NC(=O)[C@H](CC(C)C)NC(=O)[C@H](CC(C)C)NC(=O)[C@H](Cc1c[nH]c2ccccc12)NC(=O)[C@H](CC(N)=O)NC(=O)[C@@H](NC(=O)[C@H](Cc1ccccc1)NC(=O)[C@H](CCC(=O)O)NC(=O)C(C)(C)NC(=O)[C@H](C)NC(=O)[C@H](C)NC(=O)[C@H](CCC(N)=O)NC(=O)[C@H](CCCCN)NC(=O)[C@H](CC(=O)O)NC(=O)[C@H](CC(C)C)NC(=O)[C@H](Cc1ccc(O)cc1)NC(=O)[C@@H](NC(=O)[C@H](CO)NC(=O)[C@H](Cc1ccc(O)cc1)NC(=O)[C@H](CC(=O)O)NC(=O)[C@H](CO)NC(=O)[C@@H](NC(=O)[C@H](Cc1ccccc1)NC(=O)[C@@H](NC(=O)CNC(=O)[C@H](CCC(=O)O)NC(=O)CSCC(=O)NCCN1CCCCS1(=O)=O)[C@@H](C)O)[C@@H](C)O)[C@@H](C)CC)C(C)C)C(N)=O)C(=O)O [Compound 40]	101 to 105		101 to 105		14 to 34		14 to 34			0.1 to 1	0.1 to 1	1 to 10	1 to 1000	> 1000
